In patent US8691875B2, “Solid forms of tacedinaline” (Broad Institute, Inc., priority 2011, dated 2014):
Converted amounts (≈) assume the structure as drawn. “Also recorded” adds a separate entry of the source. Like-named read-outs stand apart in the source and are kept apart here. Each block holds one compound with its values, some of them ahead of it.

Assays:
[1] = Accelerated stability studies, 40° C. and 75% relative humidity, XRPD; format: physicochemical
Method: Accelerated stability studies were performed on samples of crystalline tacedinaline Forms A, B, C, and a mixture of Forms B and D, under conditions of 40° C. and 75% relative humidity. For the studies on Form A, samples were taken at 8 days, 15 days, one month, 10 weeks, and 8 months. For the studies on Forms B, C, and a mixture of Forms B and D, samples were taken at 2, 4, 6, 8, and 10 weeks.

[2] = Solubility study of crystalline forms in water (slurry, UV); format: physicochemical; conditions: for Solubility: slurry stirred 24 hours at ambient temperature (23° C.), UV
Method: Analysis of the relative solubilities of crystalline tacedinaline Forms A, B, and D was performed as follows.
The starting material was Form B. The only peak in the spectrum, at approximately 267 nm, was used. The UV parameters were: scan range: 190-800 nm; 480 nm/min; 1 cm cuvette.
Each sample was placed in water to give a slurry. The slurries were stirred at ambient temperature for 24 hours. The temperature in the laboratory was monitored and found to be steady at 23° C. After 24 hours, the vials containing the slurries were centrifuged for about 5 minutes. The mother liquors were decanted and filtered through 0.2 micron filters, then diluted appropriately and analyzed by UV. Solids were dried under dry air purges and analyzed by XRPD.

[3] = Bioavailability / pharmacokinetics study, single IV and PO administration; format: in vivo, Sprague-Dawley rats; conditions: for AUC(0-inf) / AUC(0-t) / Cmax / clearance / half-life / MRT inf / Vd / bioavailability / Tmax: Sprague-Dawley, rat, plasma; for AUC(0-inf) / AUC(0-t) / Cmax / clearance / half-life / MRT inf / Vd / bioavailability: 1 mg/kg; for MRT inf: read-out: MRT(0-∞); for Vd: read-out: Vz
Method: A study was performed to determine the pharmacokinetics parameters and bioavailability of Tacedinaline Form A in Sprague-Dawley Rats, following a single intravenous injection (IV) and oral administration (PO). Formulation: IV formulation: The test article was dissolved in 10% DMSO/45% PEG400/45% Saline to yield a final concentration of 0.5 mg/ml for intravenous injection. PO formulation: The test article was suspended in 0.5% methylcellulose in water to yield a final concentration of 0.2 mg/ml for oral administration. Collection Intervals: Three rats in each group were used for blood collection at each time point: Groups 1 and 2: Pre-dose and post-dose (5 min, 15 min, 30 min, 1 hour, 2 hours, 4 hours, 6 hours, 8 hours, and 24 hours). Analysis Procedure: The PK blood samples were centrifuged at approximately 8000 rpm for 6 minutes at 2-8° C. and the resulting plasma separated and stored frozen at approximately −80° C. (following separation, the plasma may be initially placed on ice prior to being stored in the −80° C. freezer). All the plasma samples were labeled with detailed information such as study number, animal number, matrix, time points of collection and date of collection. Pharmacokinetics Analysis: A standard set of parameters including Area Under the Curve (AUC(0-t) and AUC(0-∞)), elimination half-life (T1/2), maximum plasma concentration (Cmax), time to reach maximum plasma concentration (Tmax), clearance (CL), and volume of distribution (VZ) was calculated using noncompartmental analysis modules in FDA certified pharmacokinetic program WinNonlin Professional v6.1 (Pharsight, USA). Further, the bioavailability was estimated using the following formula: […]

[4] = Competitive slurry experiment / relative thermodynamic stability; format: physicochemical; conditions: for relative thermodynamic stability, rank order: from Examples 10A, 11 and 12; for thermodynamic stability relative to other forms (in words): slurry experiments (THF overnight; acetone 7 days), Examples 10A, 11, 12
Method: To a mixture of 161.3 mg of crystalline tacedinaline Forms B and D, was added 2 mL of acetone. The resulting slurry was stirred at ambient temperature for 7 days and filtered to give white solid.
A slurry containing 25.8 mg tacedinaline Form A, 25.8 mg of a mixture of tacedinaline Forms B and D, a few milligrams of tacedinaline Form B, and 0.5 mL of tetrahydrofuran (THF) was stirred overnight and filtered to give 38.6 mg of a white solid. The white solid was analyzed by XRPD and determined to be tacedinaline Form A.

[5] = Thermal stability relative to Form C; format: physicochemical
Method: As used herein, the term “DSC” refers to differential scanning calorimetry. Unless otherwise noted, DSC data disclosed herein were obtained using a TA Instruments 2920 instrument. Samples were prepared in crimped aluminum pans and kept under a flow of nitrogen during analysis. The heating rate was 10° C./minute.
As used herein, the term “TGA” refers to thermogravimetric analysis. Unless otherwise noted, TGA data disclosed herein were obtained using TA Instruments 2050 instrument. Samples were kept under a flow of nitrogen during analysis. The heating rate was 10° C./minute.

SMILES: CC(=O)Nc1ccc(C(=O)Nc2ccccc2N)cc1 [B + D, 4-acetamido-N-(2-aminophenyl)benzamide]
stability of the solid form (in words) ([1]; listed as mixture of Form B and Form D): more stable than Form C | XRPD Result ([1]; pull time 2 weeks): B + D | XRPD Result ([1]; pull time 4 weeks): B + D | XRPD Result ([1]; pull time 6 weeks): B + D | XRPD Result ([1]; pull time 8 weeks): B + D | Solubility [2]: 20.8 µg/mL

SMILES: CC(=O)Nc1ccc(C(=O)Nc2ccccc2N)cc1 [Form A, 4-(acetylamino)-N-(2-aminophenyl)benzamide]
CL_F ([3]; PO 1 mg/kg, Animal No. 1): 4.5 mL/min/kg | Vz_F ([3]; PO 1 mg/kg, Animal No. 1): 1.47 L/kg | CL_F ([3]; PO 1 mg/kg, Animal No. 2): 4.17 mL/min/kg | Vz_F ([3]; PO 1 mg/kg, Animal No. 2): 1.04 L/kg | CL_F ([3]; PO 1 mg/kg, Mean): 4.33 mL/min/kg | Vz_F ([3]; PO 1 mg/kg, Mean): 1.25 L/kg | AUC(0-inf) ([3]; iv, IV 1 mg/kg, Animal No. 1): 3100 ng·h/mL | AUC(0-t) ([3]; iv, IV 1 mg/kg, Animal No. 1): 3090 ng·h/mL | Cmax ([3]; iv, IV 1 mg/kg, Animal No. 1): 799 ng/mL | clearance ([3]; iv, IV 1 mg/kg, Animal No. 1): 5.33 mL/min/kg | half-life ([3]; iv, IV 1 mg/kg, Animal No. 1): 2.81 h | MRT inf ([3]; iv, IV 1 mg/kg, Animal No. 1): 3.46 h | Vd ([3]; iv, IV 1 mg/kg, Animal No. 1): 1.31 L/kg | AUC(0-inf) ([3]; iv, IV 1 mg/kg, Animal No. 2): 3010 ng·h/mL | AUC(0-t) ([3]; iv, IV 1 mg/kg, Animal No. 2): 3010 ng·h/mL | Cmax ([3]; iv, IV 1 mg/kg, Animal No. 2): 715 ng/mL | clearance ([3]; iv, IV 1 mg/kg, Animal No. 2): 5.5 mL/min/kg | half-life ([3]; iv, IV 1 mg/kg, Animal No. 2): 2.82 h | MRT inf ([3]; iv, IV 1 mg/kg, Animal No. 2): 3.57 h | Vd ([3]; iv, IV 1 mg/kg, Animal No. 2): 1.35 L/kg | AUC(0-inf) ([3]; iv, IV 1 mg/kg, Mean): 3060 ng·h/mL | AUC(0-t) ([3]; iv, IV 1 mg/kg, Mean): 3050 ng·h/mL | Cmax ([3]; iv, IV 1 mg/kg, Mean): 757 ng/mL | clearance ([3]; iv, IV 1 mg/kg, Mean): 5.5 mL/min/kg | half-life ([3]; iv, IV 1 mg/kg, Mean): 2.81 h | MRT inf ([3]; iv, IV 1 mg/kg, Mean): 3.52 h | Vd ([3]; iv, IV 1 mg/kg, Mean): 1.33 L/kg | bioavailability ([3]; oral, rats, read-out: bioavailability): 100% | AUC(0-inf) ([3]; po, PO 1 mg/kg, Animal No. 1): 3730 ng·h/mL | AUC(0-t) ([3]; po, PO 1 mg/kg, Animal No. 1): 3700 ng·h/mL | Cmax ([3]; po, PO 1 mg/kg, Animal No. 1): 687 ng/mL | half-life ([3]; po, PO 1 mg/kg, Animal No. 1): 3.81 h | bioavailability ([3]; po, PO 1 mg/kg, Animal No. 1, read-out: F (Bioavailability)): 122% | MRT inf ([3]; po, PO 1 mg/kg, Animal No. 1): 4.6 h | AUC(0-inf) ([3]; po, PO 1 mg/kg, Animal No. 2): 4030 ng·h/mL | AUC(0-t) ([3]; po, PO 1 mg/kg, Animal No. 2): 4020 ng·h/mL | Cmax ([3]; po, PO 1 mg/kg, Animal No. 2): 781 ng/mL | half-life ([3]; po, PO 1 mg/kg, Animal No. 2): 2.9 h | bioavailability ([3]; po, PO 1 mg/kg, Animal No. 2, read-out: F (Bioavailability)): 132% | MRT inf ([3]; po, PO 1 mg/kg, Animal No. 2): 4.06 h | AUC(0-inf) ([3]; po, PO 1 mg/kg, Mean): 3880 ng·h/mL | AUC(0-t) ([3]; po, PO 1 mg/kg, Mean): 3860 ng·h/mL | Cmax ([3]; po, PO 1 mg/kg, Mean): 734 ng/mL | half-life ([3]; po, PO 1 mg/kg, Mean): 3.35 h | bioavailability ([3]; po, PO 1 mg/kg, Mean, read-out: F (Bioavailability)): 127% | MRT inf ([3]; po, PO 1 mg/kg, Mean): 4.33 h | Tmax ([3]; IV 1 mg/kg, Animal No. 1): 0.5 h | Tmax ([3]; PO 1 mg/kg, Animal No. 1): 2 h | relative thermodynamic stability, rank order [4]: A>D>B | thermodynamic stability relative to other forms (in words) [4]: more thermodynamically stable, relative to tacedinaline Forms B, and D; also recorded: more thermodynamically stable under certain conditions relative to Forms B and D | stability of the solid form (in words) [1]: stable, as no conversion was seen | Solubility [2]: 17.6 µg/mL (≈ 65.4 µM) | thermal stability relative to Form C (in words) [5]: improved thermal stability relative to tacedinaline Form C

Further lines, with some results ahead:

relative thermodynamic stability, rank order [4]: A>D>B | stability of the solid form (in words) [1]: more stable than Form C | solubility in water compared with other forms (in words) [2]: superior to that of Forms A and D | Solubility [2]: 42.6 µg/mL (≈ 158 µM)
SMILES: CC(=O)Nc1ccc(C(=O)Nc2ccccc2N)cc1 [Form B, 4-(acetylamino)-N-(2-aminophenyl)benzamide]
thermal stability relative to Form C (in words) [5]: improved thermal stability relative to tacedinaline Form C

XRPD Result ([1]; pull time 2 weeks): D + A | XRPD Result ([1]; pull time 6 weeks): D + A | XRPD Result ([1]; pull time 8 weeks): D + A
SMILES: CC(=O)Nc1ccc(C(=O)Nc2ccccc2N)cc1 [Form C, 4-(acetylamino)-N-(2-aminophenyl)benzamide, reference compound]
stability of the solid form (in words) [1]: converted to either Form D, or a mixture of Form D with some amount of Form A present

relative thermodynamic stability, rank order [4]: A>D>B
SMILES: CC(=O)Nc1ccc(C(=O)Nc2ccccc2N)cc1 [Form D, 4-(acetylamino)-N-(2-aminophenyl)benzamide]
thermodynamic stability relative to other forms (in words) [4]: more thermodynamically stable under certain conditions relative to Form B | thermal stability relative to Form C (in words) [5]: improved thermal stability relative to tacedinaline Form C
